# In ChEMBL document CHEMBL4177599, “The antitubercular activity of various nitro(triazole/imidazole)-based compounds” (Bioorg Med Chem, 2017):
# Tests used:
# in vitro [1] = settings: human, Caco-2
# Description: Apparent permeability of the compound across apical side to basolateral side in human Caco2 cells monolayer at 10 uM after 2 hrs by LC-MS/MS analysis
# in vitro [2] = settings: human, Caco-2; remark: listed apart in the source
# Description: Efflux ratio of apparent permeability from basolateral to apical over apical to basolateral side in human Caco2 cells monolayer at 10 uM after 1 hr by LC-MS/MS analysis
# in vitro [3] = settings: human, Caco-2; remark: listed apart in the source
# Description: Efflux ratio of apparent permeability from basolateral to apical over apical to basolateral side in human Caco2 cells monolayer at 10 uM after 2 hrs by LC-MS/MS analysis
# in vitro [4] = settings: human, Caco-2; remark: listed apart in the source
# Description: Apparent permeability of the compound across basolateral side to apical side in human Caco2 cells monolayer at 10 uM after 2 hrs by LC-MS/MS analysis
# [5] = Fraction unbound in human plasma at 5 uM after 4 hrs by LC-MS/MS analysis; assay type: ADME, cell-free
# [6] = Protein binding in human plasma at 5 uM after 4 hrs by LC-MS/MS analysis
# [7] = Apparent permeability of the compound across basolateral side to apical side in human Caco2 cells monolayer at 10 uM after 1 hr by LC-MS/MS analysis; assay type: ADME, cell-based; settings: Caco-2
# L6 = assay: Cytotoxicity against rat L6 cells after 2 days by CellTiter-Glo luminescent cell viability assay; assay type: ADME, cell-based; settings: L6, 48 h
# [8] = test system: Mycobacterium tuberculosis; assay: Antitubercular activity against luxABCDE expressing Mycobacterium tuberculosis H37Rv infected in human THP1 cells measured after 3 days by luminescence assay; assay type: functional, organism-based; settings: THP-1, 72 h
# [9] = test system: Mycobacterium tuberculosis; assay: Bactericidal activity against Mycobacterium tuberculosis H37Rv ATCC 27294 assessed as concentration required for 2 log kill after 21 days under aerobic condition by colony forming assay; assay type: functional; settings: for MBC: H37Rv ATCC 27294, 504 h
# [10] = Half life in human liver S9 microsomes at 1 uM in absence of NADPH by LC-MS/MS analysis
# [11] = test system: Mycobacterium tuberculosis; assay: Antitubercular activity against Mycobacterium tuberculosis H37Rv ATCC 27294 after 10 days under low oxygen condition followed by incubation under aerobic condition for 28 hrs by LORA; assay type: functional, organism-based
# [12] = Half life in human liver S9 microsomes at 1 uM in presence of NADPH by LC-MS/MS analysis
# [13] = Intrinsic clearance in human liver S9 microsomes at 1 uM in absence of NADPH by LC-MS/MS analysis; assay type: ADME, S9 microsome; settings: read-out: CLH
# [14] = Apparent permeability of the compound across apical side to basolateral side in human Caco2 cells monolayer at 10 uM after 1 hr by LC-MS/MS analysis; assay type: ADME, cell-based; settings: Caco-2
# HepG2 = assay: Cytotoxicity against human HepG2 cells at 100 uM after 3 days by CellTiter-Glo luminescent cell viability assay; assay type: cell-based; settings: HepG2, 72 h
# [15] = Intrinsic clearance in human liver S9 microsomes at 1 uM in presence of NADPH by LC-MS/MS analysis; assay type: ADME, S9 microsome; settings: read-out: CLH
# THP-1 = assay: Cytotoxicity against human THP1 cells after 3 days by luminescence assay; assay type: cell-based; settings: THP-1, 72 h
# in vitro [16] = settings: human, THP1 cells
# Description: Selectivity index, ratio of IC50 for human THP1 cells to IC50 for Mycobacterium tuberculosis H37Rv under aerobic condition
# [17] = test system: Mycobacterium tuberculosis; assay: Antitubercular activity against Mycobacterium tuberculosis H37Rv ATCC 27294 after 5 days under aerobic condition; assay type: functional, organism-based; settings: for IC50 / IC90 / MIC: H37Rv ATCC 27294, 120 h
# Vero = assay: Cytotoxicity against African green monkey Vero cells after 2 days by CellTiter-Glo luminescent cell viability assay; assay type: ADME, cell-based; settings: Chlorocebus sabaeus, 48 h
# [18] = test system: Mycobacterium tuberculosis; assay: Antitubercular activity against luxABCDE expressing Mycobacterium tuberculosis H37Rv infected in mouse J774 macrophages assessed as log reduction in bacterial colonies at 200 uM measured after 4 days under aerobic condition by luminescence assay; assay type: functional
# [19] = test system: Mycobacterium tuberculosis; assay: Potency index, ratio of compound MIC to metronidazole MIC for antitubercular activity against Mycobacterium tuberculosis H37Rv ATCC 27294 under low oxygen condition; assay type: functional
# [20] = test system: Mycobacterium tuberculosis; assay: Antitubercular activity against luxABCDE expressing Mycobacterium tuberculosis H37Rv infected in mouse J774 macrophages assessed as log reduction in bacterial colonies at 7.2 uM measured after 4 days under aerobic condition by luminescence assay; assay type: functional
structure (smiles),measurement,setting,value
CC(C)NCC(O)COc1cccc2ccccc12 (centres undefined) [PROPRANOLOL],"Papp A→B at 2 h, 10 µM",in vitro [1],8.8 to 25.4 ×10⁻⁶ cm/s
same,"efflux ratio at 1 h, 10 µM",in vitro [2],2.5
same,"efflux ratio at 2 h, 10 µM",in vitro [3],0.83 to 3.1
same,"Papp B→A at 2 h, 10 µM",in vitro [4],21.1 to 27.3 ×10⁻⁶ cm/s
same,"fraction unbound at 4 h, 5 µM",[5],0.244
same,"fraction unbound at 4 h, 5 µM",[6],0.199
same,"Papp B→A at 1 h, 10 µM",[7],43.3 ×10⁻⁶ cm/s
O=C(CCn1cnc([N+](=O)[O-])n1)Nc1cccc(-c2ccccc2)c1,IC50,L6,36 µM
same,IC50,[8],2.3 µM
same,IC90,[8],4.1 µM
same,"Papp A→B at 2 h, 10 µM",in vitro [1],18 ×10⁻⁶ cm/s
same,MBC,[9],6.8 µM
same,Activity,[9]; TDE = time-dependent effect,Tde
same,half-life at 1 µM,[10],> 3 h
same,IC50,[11],7.8 µM
same,IC90,[11],44 µM
same,MIC,[11],> 200 µM
same,half-life at 1 µM,[12],> 3 h
same,microsomal CLint at 1 µM,[13],< 12.8 µL/min/mg
same,"efflux ratio at 1 h, 10 µM",in vitro [2],0.79
same,"efflux ratio at 2 h, 10 µM",in vitro [3],0.39
same,"Papp B→A at 2 h, 10 µM",in vitro [4],7 ×10⁻⁶ cm/s
same,"Papp A→B at 1 h, 10 µM",[14],22.2 ×10⁻⁶ cm/s
same,IC50,HepG2,> 100 µM
same,microsomal CLint at 1 µM,[15],< 12.8 µL/min/mg
same,IC50,THP-1,> 50 µM
same,selectivity ratio,in vitro [16],> 10
same,"fraction unbound at 4 h, 5 µM",[5],0.033
same,"fraction unbound at 4 h, 5 µM",[6],0.042
same,IC50,[17],3.6 to 6.1 µM
same,IC90,[17],6.8 to 7.1 µM
same,MIC,[17],6.8 to 8.4 µM
same,Activity,[17]; TDE = time-dependent effect,Tde
same,"Papp B→A at 1 h, 10 µM",[7],17.5 ×10⁻⁶ cm/s
COc1ccc2c(c1)[C@]13CCCC[C@@H]1[C@H](C2)N(C)CC3 [DEXTROMETHORPHAN],half-life at 1 µM,[12],1.54 to 1.59 h
same,microsomal CLint at 1 µM,[13],< 12.8 µL/min/mg
same,microsomal CLint at 1 µM,[15],24.2 µL/min/mg
O=C(Cn1cnc([N+](=O)[O-])n1)Nc1cccc(-c2ccccc2)c1,IC50,[8],11 µM
same,IC90,[8],12 µM
same,MBC,[9],20 µM
same,half-life at 1 µM,[10],1.32 h
same,IC50,[11],30 µM
same,IC90,[11],46 µM
same,MIC,[11],73 µM
same,IC50,HepG2,46 µM
same,IC50,THP-1,> 50 µM
same,"fraction unbound at 4 h, 5 µM",[6],0.028
same,IC50,[17],27 µM
same,IC90,[17],39 µM
same,MIC,[17],31 µM
O=C(Cn1cnc([N+](=O)[O-])n1)Nc1ccc(N2CCCCC2)cc1,IC50,[8],11 µM
same,IC90,[8],25 µM
same,"Papp A→B at 2 h, 10 µM",in vitro [1],38.4 ×10⁻⁶ cm/s
same,MBC,[9],20 µM
same,half-life at 1 µM,[10],> 3 h
same,IC50,[11],99 µM
same,IC90,[11],110 µM
same,MIC,[11],120 µM
same,half-life at 1 µM,[12],2.68 h
same,"efflux ratio at 2 h, 10 µM",in vitro [3],0.7
same,"Papp B→A at 2 h, 10 µM",in vitro [4],27 ×10⁻⁶ cm/s
same,IC50,HepG2,> 100 µM
same,IC50,THP-1,> 50 µM
same,"fraction unbound at 4 h, 5 µM",[6],0.233
same,IC50,[17],29 µM
same,IC90,[17],46 µM
same,MIC,[17],48 µM
O=C(Cn1cnc([N+](=O)[O-])n1)N1CCN(Cc2ccc(Cl)c(Cl)c2)CC1,IC50,[8],4 µM
same,IC90,[8],6.7 µM
same,"Papp A→B at 2 h, 10 µM",in vitro [1],16.3 ×10⁻⁶ cm/s
same,MBC,[9],5.6 µM
same,half-life at 1 µM,[10],2.9 h
same,IC50,[11],17 µM
same,IC90,[11],47 µM
same,MIC,[11],140 µM
same,half-life at 1 µM,[12],1.2 h
same,"Papp B→A at 2 h, 10 µM",in vitro [4],14.8 ×10⁻⁶ cm/s
same,IC50,HepG2,77 µM
same,IC50,THP-1,> 50 µM
same,selectivity ratio,in vitro [16],> 10
same,"fraction unbound at 4 h, 5 µM",[6],0.076
same,IC50,[17],5.9 µM
same,IC90,[17],7.7 µM
same,MIC,[17],6.6 µM
O=C(Cn1cnc([N+](=O)[O-])n1)Nc1ccc(Oc2ccccc2)cc1,IC50,Vero,39 µM
same,MBC,[9],200 µM
same,IC50,[11],8.9 µM
same,IC90,[11],92 µM
same,MIC,[11],> 200 µM
same,log(activity),[18],2.7
same,IC50,[17],65 µM
same,IC90,[17],100 µM
same,MIC,[17],105 µM
O=C(NCCCCn1cnc([N+](=O)[O-])n1)c1sc2ccccc2c1Cl,IC50,L6,> 264 µM
same,Ratio,[19],6 - 9
same,IC50,Vero,> 100 µM
same,MBC,[9],7.2 µM
same,IC50,[11],35.5 µM
same,IC90,[11],61.4 µM
same,MIC,[11],21.5 µM
same,log(activity),[20],2.2
same,IC50,[17],4 µM
same,IC90,[17],6.4 µM
same,MIC,[17],6.1 µM
